{"source": "patent US20240141440A1", "about": "“METHODS FOR DETECTING ONCOGENIC KRAS MUTATIONS” (Duke University, priority 2022, published 2024)", "format_in_all_cases": "in vivo, A/J mice", "key": {"[1]": {"test_system": "Kras Q61L", "test": "Droplet digital PCR of Kras Q61L in lungs of mice after urethane exposure", "conditions": "4 weeks post urethane exposure", "experimental": "(§1) Urethane treatment. 6-8-week-old male and female A/J mice (JAX Stock #000646) were intraperitoneally injected daily for three days with either urethane (Sigma U2500) dissolved in PBS (1 g·kg^−1) or the vehicle PBS alone. Mice were humanely euthanized 1, 2, 3, or 4 weeks after the last injection and the lung, liver, and pancreas collected for the extraction of genomic DNA. All mouse care and experiments were performed in accordance with protocols approved by the IACUC of Duke University.\nDroplet digital PCR (ddPCR). ddPCR was performed using the QX200 AutoDG Droplet Digital PCR System (Bio-Rad) following the manufacturer's protocol in a 22 μl ddPCR reaction containing 11 μl of 2×ddPCR SuperMix for probes (no dUTP) (Bio-Rad), 66 ng template DNA, 450 nM forward and reverse primers, and 250 nM FAM- and HEX-labelled probes. The primer and probe oligonucleotides were synthesized (IDT) based on sequences previously described^76 with minor modifications. The sequences for the primers are: Kras_Q61_For: 5′-[…]-3′ (SEQ ID NO: 205); and Kras_Q61_Rev: 5′-[…]-3′ (SEQ ID NO: 206). […] Plates were read on a QX200 droplet reader (Bio-Rad) and analyzed with QuantaSoft™ Analysis Pro software (version 1.0.596) (Bio-Rad) to assess the number of droplets positive for mutant DNA, wild-type DNA, both, or neither. […]"}, "[2]": {"test_system": "exon 2 of Hras", "test": "MDS of Hras exon 2 from lungs of mice after urethane exposure", "experimental": "as §1\n(§2) Isolation of genomic DNA. MEF cells were resuspended in lysis buffer (100 mM NaCl, 10 mM Tris pH 7.6, 25 mM EDTA pH 8.0, and 0.5% SDS in H2O, supplemented with 20 μg·ml^−1 RNase A (Sigma)). Lung, pancreas, and liver (right lobe) from A/J mice (JAX Stock #000646) were cut into fine pieces and similarly resuspended in lysis buffer. Samples were incubated at 37° C. for 1 hour. 2 μl of 800 U·ml^−1 proteinase K (NEB) was then added to each sample, the samples were vortexed, and then incubated at 55° C. overnight. Genomic DNA was isolated by phenol/chloroform extraction followed by ethanol precipitation using standard procedures and quantified using Qubit fluorometer.\n(§3) Maximum depth sequencing (MDS). The MDS assay^13 was adapted for mammalian Ras genes as follows. […] The concentration of purified product was measured with SimpliNano spectrophotometer (GE Healthcare Life Sciences). […]"}, "[3]": {"test_system": "exon 2 of Kras", "test": "Maximum depth sequencing (MDS) of Kras exon 2 from tissues of mice after urethane exposure", "experimental": "as §1, §2\nMaximum depth sequencing (MDS). The MDS assay^13 was adapted for mammalian Ras genes as follows. 20-50 μg of genomic DNA was incubated with StuI (NEB) for analysis of the transcribed strand of Kras exon 1, EcoRV (NEB) and EcoRI (NEB) for analysis of the non-transcribed strand of Kras exon 1, XmnI (NEB) for analysis of the non-transcribed strand of Kras exon 2, and PleI (NEB) for analysis of the transcribed strand of Kras exon 2, or HphI (NEB) for the analysis of the non-transcribed strand of Hras exon 2. Reaction conditions were 5 units of the indicated restriction enzyme and per 1 μg DNA per 20 μl reaction (e.g., 20 μg genomic DNA, 5 μl enzyme (20 units/μl), and 40 μl 10×buffer in 400 μl reaction). Digested genomic DNA was column purified using QIAquick PCR Purification Kit following the manufacturer's protocol (Qiagen) and resuspended in ddH2O (35 μl H2O per 10 μg DNA). The barcode and adaptor were added to the target DNA by incubating purified DNA with the appropriate barcode primer (see below) for one cycle of PCR. PCR reactions were comprised of 10 μg DNA, 2.5 μl of 10 μM barcode primer, 4 μl of 2.5 mM dNTP, 10 μl of 5×buffer (NEB), and 0.5 μl Q5® Hot Start High-Fidelity DNA Polymerase (NEB) in a total volume of 50 μl. The number of PCR reactions was scaled according to the amount of DNA. PCR conditions were 98° C. for 1 minute, barcode primer annealing temperate (see below) for 15 seconds, and 72° C. for 1 minute. […] The concentration of purified product was measured with SimpliNano spectrophotometer (GE Healthcare Life Sciences). […]"}, "[4]": {"test_system": "exon 1 of Kras", "test": "MDS of Kras exon 1 from lungs of mice after urethane exposure", "experimental": "as §1, §2, §3"}}, "data": [{"smiles": "CCOC(N)=O", "note": "[urethane, ethyl carbamate]", "values": [{"measurement": "Q61L mutation frequency by droplet digital PCR", "setting": "[1]", "value": "frequency similar to that determined by MDS"}, {"measurement": "expansion of oncogenic mutations in Hras over time", "setting": "[2]; 4 weeks vs 1 week", "value": "did not expand appreciably over time"}, {"measurement": "mutations in exon 2 of Hras", "setting": "[2]; non-transcribed strand, 1 and 4 weeks after exposure", "value": "high prevalence of A>T followed by A>G mutations"}, {"measurement": "strand bias of mutagenesis", "setting": "[3]; lung, both strands sequenced in two exons of Kras", "value": "bias for the non-transcribed strand"}, {"measurement": "most prominent substitution detected by MDS", "setting": "[3]; lungs, Kras exon 2, all time points, urethane but not PBS", "value": "A>T transversion within the context of a 5′ C and 3′ any nucleotide"}, {"measurement": "oncogenic mutation at codon Q61 of Kras detected by MDS", "setting": "[3]; lungs, non-transcribed strand of exon 2, 1-4 weeks after three daily i.p. injections, vs PBS", "value": "oncogenic L (and to a lesser extent R) mutation at codon Q61 preferentially in the urethane, but not PBS cohort of mice, as early as 1 week after exposure"}, {"measurement": "CAN→CTN transversions in liver and pancreas in comparison with the lung", "setting": "[3]; non-transcribed strand of exon 2 of Kras, 1 and 4 weeks after urethane exposure", "value": "significantly fewer CAN→CTN transversions were recovered in the liver and pancreas"}, {"measurement": "oncogenic mutations in codon 12 or 13 of Kras", "setting": "[4]; 1 week after urethane exposure", "value": "oncogenic mutations were rarely recovered in either codon 12 or 13"}, {"measurement": "oncogenic mutations in codon 12 or 13 of Kras", "setting": "[4]; 4 weeks after urethane exposure", "value": "some G12 and G13 mutations were detected at a low frequency"}]}]}
